Patent publication US7888118B2, “2-{2-[5-(3-chlorophenyl)]furanyl}-4,5-bis(4-methoxyphenyl)imidazole and methods for inducing differentiation of myoblasts or muscle fibers into neuron cells” (Industry-Academic Cooperation Foundation, Yonsei University, priority 2005, dated 2011)

Columns and labels:
[1] = system: Murine myoblasts (C2C12); test: Neurite outgrowth / neuron differentiation of myoblasts observed by light microscope; assay type: cell-based
Description: Murine myoblasts (C2C12) are usually cultured in RPMI 1640 or DMEM supplemented with 10% FBS, 50 units/mL penicillin and 50 μg/mL of streptomycin at 37° C. with 5% CO2 in air atmosphere.
For the small molecule screen, the cultured C2C12 cells are seeded in a 96-well plate at a density of 10^3 cells per well in culture media. After 24 h, the culture media are replaced with differentiation media (RPMI 1640 or DMEM containing 1% FBS, 50 units/mL penicillin and 50 μg/mL of streptomycin). Test compounds are then added at a final concentration of 5-10 μM. After 96 h incubation, morphological changes of cells are observed by a light microscope (Nikon Eclipse TE2000) to detect neurite outgrowth characteristic of neuron differentiation. To ascertain neuron differentiation, the cells are washed with PBS and loaded FM1-43 (a final concentration: 2 μM, Molecular Probes) dissolved in Ringer buffer containing 100 mM KCl. […] Fluorescent intensity of the treated cells (excitation wavelength: 470 nm, emission wavelength: 540 nm) is read on a fluorescent microplate reader (SpectraMax GeminiEM, Molecular Devices).
An imidazole library of about 300 compounds is added at a final concentration of 5-10 μM. […] Fluorescent intensity (excitation wavelength: 470 nm, emission wavelength: 540 nm) is read on a fluorescent microplate reader (SpectraMax GeminiEM, Molecular Devices).

[2] = system: human single muscle fibers; test: Differentiation of isolated human muscle fibers into neuron cells; assay type: cell-based
Description: Single fibers of human skeletal muscle are obtained as described previously (In Vitro Cell Dev Biol Anim. 2002, 38, 66). A sample of skeletal muscle is dissected from the abductor hallucis muscle. The sample is collected and transported in single fiber culture media (Ham's F-10 medium supplemented with 10% FBS, 2% chick embryo extract and 1.5 μg/mL amphotericin B). The muscle sample is incubated in 10 mL single fiber culture media containing 0.1% collagenase in a 50 mL Falcon™ tube for 1 h at 37° C. Bundles of muscle fibers are carefully dissected using a scalpel. The bundles are laid in a Petri dish containing 10 mL single fiber culture media with 0.1% collagenase at 37° C. for 5 h. Isolation of single muscle fibers is carried out by repeatedly triturating the muscle sample with a wide-mouthed Pasteur pipette. Isolated muscle fibers that have not undergone hypercontraction (which renders them unsuitable for plating in culture dishes) are placed in matrigel-coated 6-well plates at a density of three fibers per well. Fibers are plated in one drop of single fiber culture media and allowed to attach for 6 h and then 1 mL of media is added to the culture. After 24 h, the media are changed to single fiber culture media without amphotericin B.
After 5 days, populations of satellite muscle precursor cells migrate from the fiber and begin to proliferate. […]

COc1ccc(-c2nc(-c3ccc(-c4cccc(Cl)c4)o3)[nH]c2-c2ccc(OC)cc2)cc1 [Neurodazine 1, 2-{2-[5-(3-chlorophenyl)]furanyl}-4,5-bis(4-methoxyphenyl)imidazole]
differentiation of myoblasts into neuron cells (FIG. 2) [1]: Differentiated neuron cells from myoblasts
differentiation of muscle fibers into neuron cells (FIG. 3) [2]: Differentiated neuron cells from muscle fibers
